Data published in the Kinase Knowledgebase extract (Sharma et al. 2016).

Columns and labels:
EGFR (mouse) = EGFR (mouse) (UniProt P00533); conditions: mk
EGFR = EGFR (UniProt P00533)
Chain of EGFR (P00533 whole entry, looked up): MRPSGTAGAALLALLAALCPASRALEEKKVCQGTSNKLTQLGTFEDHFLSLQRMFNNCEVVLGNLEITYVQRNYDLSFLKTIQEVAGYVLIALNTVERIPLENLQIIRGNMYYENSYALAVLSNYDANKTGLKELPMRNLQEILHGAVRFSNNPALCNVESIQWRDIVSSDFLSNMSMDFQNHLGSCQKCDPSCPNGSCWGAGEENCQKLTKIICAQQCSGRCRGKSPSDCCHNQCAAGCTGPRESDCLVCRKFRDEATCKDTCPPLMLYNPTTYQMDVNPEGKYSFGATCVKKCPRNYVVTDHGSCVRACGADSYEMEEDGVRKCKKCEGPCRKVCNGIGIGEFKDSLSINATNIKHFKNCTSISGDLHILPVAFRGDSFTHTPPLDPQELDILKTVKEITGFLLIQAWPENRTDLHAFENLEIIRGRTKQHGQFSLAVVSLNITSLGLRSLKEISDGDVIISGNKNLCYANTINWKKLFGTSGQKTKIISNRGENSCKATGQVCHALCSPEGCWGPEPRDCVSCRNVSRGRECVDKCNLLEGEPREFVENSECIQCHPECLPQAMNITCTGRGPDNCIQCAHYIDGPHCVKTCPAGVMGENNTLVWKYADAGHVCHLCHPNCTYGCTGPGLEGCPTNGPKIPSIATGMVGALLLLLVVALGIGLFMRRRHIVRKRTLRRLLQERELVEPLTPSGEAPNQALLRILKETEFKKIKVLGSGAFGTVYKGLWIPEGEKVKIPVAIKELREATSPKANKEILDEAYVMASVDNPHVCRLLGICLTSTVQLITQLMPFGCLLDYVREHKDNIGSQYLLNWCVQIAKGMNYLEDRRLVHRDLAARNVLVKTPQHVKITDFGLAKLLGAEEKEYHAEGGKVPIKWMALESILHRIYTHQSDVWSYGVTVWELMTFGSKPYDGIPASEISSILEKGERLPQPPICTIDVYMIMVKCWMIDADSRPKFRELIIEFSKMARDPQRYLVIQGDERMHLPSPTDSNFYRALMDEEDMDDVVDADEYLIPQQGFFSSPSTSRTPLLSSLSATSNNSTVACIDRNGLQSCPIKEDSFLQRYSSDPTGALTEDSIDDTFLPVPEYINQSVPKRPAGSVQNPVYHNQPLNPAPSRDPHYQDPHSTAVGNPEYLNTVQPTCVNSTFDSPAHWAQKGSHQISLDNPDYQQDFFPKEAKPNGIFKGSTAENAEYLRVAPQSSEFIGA

Row | SMILES | IC50 (EGFR (mouse)) [µM] | IC50 (EGFR) [µM]
1 | C[C@]12CC[C@@H](CO1)c1c(cc3c(c1O)C(=O)c1c(O)cc(O)cc1C3=O)O2 | 18 | 38
2 | O=C1c2cc(O)cc(O)c2C(=O)c2c1cc(O)c(C(CCO)C(=O)O)c2O (centres undefined) | 16 | 10.5
3 | CC(=O)CCC(C(=O)O)c1c(O)cc2c(c1O)C(=O)c1c(O)cc(O)cc1C2=O (centres undefined) | > 50 | 21
4 | O=C1c2cc(O)cc(O)c2C(=O)c2c1cc(O)c(C(CO)CCO)c2O (centres undefined) | 22 | 21
5 | O=C1c2cc(O)cc(O)c2C(=O)c2c1cc(O)c(C1CCOC1=O)c2O (centres undefined) | 35 | 11
6 | COC(=O)C(CCC(C)=O)c1c(O)cc2c(c1O)C(=O)c1c(O)cc(O)cc1C2=O (centres undefined) | 28 | 17
7 | O=C1c2cc(O)cc(O)c2C(=O)c2c1cc(O)c(CO)c2O | 10 | 6.7
